We go through one molecule from US11192849B2, “Compounds, compositions, and methods for modulating ferroptosis and treating excitotoxic disorders” (THE TRUSTEES OF COLUMBIA UNIVERSITY IN THE CITY OF NEW YORK, priority 2013, dated 2021).

Molecules are shown by their SMILES.

In experiment [1] the test system is mice, CaOx-induced nephropathy. Briefly: Acute oxalate nephropathy model. To be noted: Ferrostatin-1 10 mg/kg i.p. The format is in vivo, mouse. The procedure:
Mice were divided into two groups. One group received vehicle injections and another group received Ferrostatin-1 (10 mg/kg i.p.). Then, 15 min later, both groups were given a single i.p. injection of 100 mg/kg sodium oxalate and 3% sodium oxalate in drinking water. Blood samples and kidneys were harvested after 24 h. Kidneys were kept at −80° C. for protein isolation and at −20° C. for RNA isolation. One part of the kidney was also kept in formalin to be embedded in paraffin for histological analysis. Kidney sections (2 μm) were stained with periodic acid-Schiff (PAS) reagent. Tubular injury was scored by assessing the percentage of necrotic tubules. Ly6B.2+ neutrophils were identified by immunostaining (clone 7/4; Serotec). Pizzolato stain was used to visualize CaOx crystals, and crystal deposit formation in the kidney was evaluated as described previously (Mulay et al., 2013), using the following point values: 0, no deposits; 1, crystals in papillary tip; 2, crystals in cortical medullary junction; 3, crystals in cortex. […] Serum creatinine and blood urea nitrogen were measured using Creatinine FS kit and Urea FS kit (both from DiaSys Diagnostic Systems) according to the manufacturer's protocol. Neutrophil infiltrates were counted in 15 high-power fields (hpfs) per section. For real-time quantitative RT-PCR, total RNA was isolated from kidneys using a Qiagen RNA extraction kit following the manufacturer's instructions. After quantification, RNA quality was assessed using agarose gels. […] Real-time quantitative RT-PCR (TaqMan) was performed using SYBR-Green PCR master mix and analyzed with a Light Cycler 480 (Roche). […] The expression of KIM-1, IL-6, CXCL-2, and NF-κB p65 was analyzed using the following primers: Kim-1 forward, 5′-[…]-3′ (SEQ ID NO:17); Kim-1 reverse, 5′-[…]-3′ (SEQ ID NO:18); IL-6 forward, 5′-[…]-3′ (SEQ ID NO:19); IL-6 reverse, 5′-[…]-3′ (SEQ ID NO:20); CXCL-2 forward, 5′-[…]-3′ (SEQ ID NO:21); CXCL-2 reverse, 5′-[…]-3′ (SEQ ID NO:22); NF-κB p65 forward, 5′-[…]-3′ (SEQ ID NO:23); NF-κB p65 reverse, 5′-[…]-3′ (SEQ ID NO:24).

A further experiment concerns HT-1080 cells. The experiment is described as follows: Mitochondrial ROS (MitoSOX) in HT-1080 cells. Format: cell-based, human. To be noted: rotenone 250 nM, 3 hr, Fer-1 1 μM.
The test system of experiment [2] is mice, IRI of the cremaster muscle. Briefly: In vivo microscopy on the postischemic cremaster muscle. The arrangement: species or system mouse. The procedure: The surgical preparation of the cremaster muscle was performed as originally described by Baez with minor modifications (Traykova-Brauch et al., 2008; Mulay et al., 2013). Mice were anesthetized using a ketamine/xylazine mixture (100 mg/kg ketamine and 10 mg/kg xylazine), administrated by i.p. injection. The left femoral artery was cannulated in a retrograde manner for administration of microspheres and drugs. The right cremaster muscle was exposed through a ventral incision of the scrotum. The muscle was opened ventrally in a relatively avascular zone, using careful electrocautery to stop any bleeding, and spread over the transparent pedestal of a custom-made microscopic stage. Epididymis and testicle were detached from the cremaster muscle and placed into the abdominal cavity. Throughout the procedure as well as after surgical preparation during in vivo microscopy, the muscle was superfused with warm-buffered saline.
The setup for in vivo microscopy was centered around equipment for stroboscopic fluorescence epiillumination microscopy. […] Microscopy images were obtained with Olympus water immersion lenses (20×/numerical aperture (N.A.) 0.5 and 10×/N.A. 0.3) and recorded with an analog black-and-white charge-coupled device (CCD) video camera (Cohu 4920; Cohu) and an analog video recorder (AG-7350-E; Panasonic). […] For measurement of centerline blood flow velocity, green fluorescent microspheres (2-μm diameter; Molecular Probes) were injected via the femoral artery catheter, and their passage through the vessels of interest was recorded using the FITC filter cube under appropriate stroboscopic illumination (exposure, 1 ms; cycle time, 10 ms; length of the electromagnetic wave, 488 nm), integrating video images for sufficient time (>80 ms) to allow for the recording of several images of the same bead on one frame. […]

Protocol for HT-1080 cells: 200,000 HT-1080 cells were seeded into 6-well dishes (Corning). The next day, cells were treated with +/−rotenone +/−ferrostatin-1 for 3 hours (for MitoSOX experiments) or +/−STS +/−ferrostatin-1 for 4 hours (for 10-N-nonylacridine orange [NAO] experiments), harvested by trypsinization and analyzed as follows. For the analysis of mitochondrial ROS, cells were incubated with 5 μM MitoSOX (Molecular Probes/Invitrogen) in HBSS for 10 minutes in the dark at 37° C. […] MitoSOX data were collected in the FL2 channel and NAO data was collected in the FL1 channel. Data are from three independent biological replicates of each experiment. Data were analyzed by one-way ANOVA with Bonferroni's post-hoc test.
A minimum of 10,000 cells were analyzed per condition.

Consider `CCOC(=O)c1ccc(NC2CCCCC2)c(N)c1` [SRS8-28 (Fer-1), ethyl 3-amino-4-(cyclohexylamino)benzoate], for which, in experiment [1], the “neutrophil infiltration and expression of CXCL-2, IL-6, KIM-1, p65” value is “statistically significantly reduced”; the “serum creatinine and urea” value was “significantly reduced”; the tubular injury score entry is “significantly reduced”. Also, the “accumulation of mitochondrial superoxide in response to rotenone” value in the experiment on HT-1080 cells is listed as “did not prevent”. For the same molecule, in experiment [2] (1 h and 2 h after onset of reperfusion), the leukocyte adherence result is on record as “remains unchanged”. For the same molecule, in experiment [2] (ferrostatin-1 2 mg/kg i.p.), the leukocyte transmigration result is listed as “Significantly reduced”. Besides, in experiment [2] (within the first hour after reperfusion), the leukocyte rolling result is “is affected”.
